Laboratory results from ChEMBL document CHEMBL1268896, “Development of the next generation of HIV-1 integrase inhibitors: pyrazolone as a novel inhibitor scaffold” (Bioorg Med Chem Lett, 2010).

What was measured:
[1] = target: T1, Human immunodeficiency virus type 1 integrase (Human immunodeficiency virus 1, UniProt Q7ZJM1); test: Inhibition of HIV1 integrase strand transfer activity
[2] = target: T1, Human immunodeficiency virus type 1 integrase; test: Inhibition of HIV1 integrase 3' processing activity

T1 sequence (Q7ZJM1 whole entry): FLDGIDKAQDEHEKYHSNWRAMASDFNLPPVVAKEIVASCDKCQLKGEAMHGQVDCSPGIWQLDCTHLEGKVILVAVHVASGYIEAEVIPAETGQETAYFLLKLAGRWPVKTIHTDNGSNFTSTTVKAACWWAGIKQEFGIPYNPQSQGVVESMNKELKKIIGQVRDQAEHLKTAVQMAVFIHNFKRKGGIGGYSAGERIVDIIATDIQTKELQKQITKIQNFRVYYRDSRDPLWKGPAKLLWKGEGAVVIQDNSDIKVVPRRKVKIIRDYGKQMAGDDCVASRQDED

SMILES	IC50 [1] [µM]	IC50 [2] [µM]
CCC(=O)OC1=NN(c2cccc(Br)c2)C(=O)/C1=C\c1ccc(OC)c(OCc2ccc(F)cc2)c1	88	> 100
COc1ccc(/C=C2\C(=O)N(c3cccc(Br)c3)N=C2C(=O)O)cc1OCc1ccc(F)cc1	19	55
COc1ccc(/C=C2\C(=O)N(c3cccc([N+](=O)[O-])c3)N=C2C(=O)O)cc1Cc1ccc(F)cc1	11	15
COc1ccc(/C=C2\C(=O)N(c3cccc([N+](=O)[O-])c3)N=C2C(=O)O)cc1OCc1ccc(F)cc1	14	60
COc1ccc(/C=C2\C(=O)N(c3cccc(Br)c3)N=C2C(F)(F)F)cc1OC	34	89
COc1ccc(/C=C2\C(=O)N(c3cccc(Br)c3)N=C2C(F)(F)F)c(OC)c1OC	> 100	> 100
O=C(O)C1=NN(c2cccc([N+](=O)[O-])c2)C(=O)/C1=C\c1ccc(O)c(OCc2ccc(F)cc2)c1	10	95
O=C(O)C1=NN(c2cccc([N+](=O)[O-])c2)C(=O)/C1=C\c1ccc(OCc2ccc(F)cc2)c(O)c1	3	21
COc1cc(/C=C2\C(=O)N(c3cccc(Br)c3)N=C2C(F)(F)F)cc(OC)c1OC	15	61
COc1ccc(/C=C2\C(=O)N(c3cccc(Br)c3)N=C2C(F)(F)F)cc1OCc1cccc(Cl)c1F	30	50
COc1ccc(/C=C2\C(=O)N(c3cccc(Br)c3)N=C2C(F)(F)F)cc1OCc1ccc(F)cc1	40	83
O=C1/C(=C\c2ccc(O)c(OCc3ccc(F)cc3)c2)C(C(F)(F)F)=NN1c1cccc(Br)c1	22	> 100
COc1ccc(/C=C2\C(=O)N(c3cccc(Br)c3)N=C2C(F)(F)F)cc1Cc1ccc(F)cc1	11	21
COc1ccc(/C=C2\C(=O)N(c3ccccc3)N=C2C(F)(F)F)cc1OCc1ccc(F)cc1	> 100	> 100
COc1ccc(/C=C2\C(=O)N(c3cccc(C)c3)N=C2C(F)(F)F)cc1OCc1ccc(F)cc1	> 100	> 100
COc1ccc(/C=C2\C(=O)N(c3cccc(C(F)(F)F)c3)N=C2C(F)(F)F)cc1OCc1ccc(F)cc1	24	90

SMILES	IC50 [1] [µM]	IC50 [2] [µM]
COc1ccc(/C=C2\C(=O)N(c3cccc(-c4ccccc4)c3)N=C2C(F)(F)F)cc1OCc1ccc(F)cc1	16	> 100
COc1ccc(/C=C2\C(=O)N(c3cccc([N+](=O)[O-])c3)N=C2C(F)(F)F)cc1OCc1ccc(F)cc1	19	52
COc1ccc(/C=C2\C(=O)N(c3cccc(F)c3)N=C2C(F)(F)F)cc1OCc1ccc(F)cc1	60	> 100
COc1ccc(/C=C2\C(=O)N(c3cccc(Cl)c3)N=C2C(F)(F)F)cc1OCc1ccc(F)cc1	30	88
COc1ccc(/C=C2\C(=O)N(c3cccc(I)c3)N=C2C(F)(F)F)cc1OCc1ccc(F)cc1	35	> 100
COc1ccc(/C=C2\C(=O)N(c3cc(Cl)cc(Cl)c3)N=C2C(F)(F)F)cc1OCc1ccc(F)cc1	12	> 100
COc1ccc(/C=C2\C(=O)N(c3ccc(Br)cc3)N=C2C(F)(F)F)cc1OCc1ccc(F)cc1	25	82
COc1ccc(/C=C2\C(=O)N(c3ccc(I)cc3)N=C2C(F)(F)F)cc1OCc1ccc(F)cc1	69	> 100
COc1ccc(/C=C2\C(=O)N(c3ccc(C(=O)O)cc3)N=C2C(F)(F)F)cc1OCc1ccc(F)cc1	41	> 100
COc1ccc(/C=C2\C(=O)N(c3ccc(NS(C)(=O)=O)cc3)N=C2C(F)(F)F)cc1OCc1ccc(F)cc1	> 100	> 100
COc1ccc(/C=C2\C(=O)N(c3nc4ccccc4s3)N=C2C(F)(F)F)cc1OCc1ccc(F)cc1	27	> 100
COc1ccc(/C=C2\C(=O)N(c3cccc(Br)c3)N=C2C)cc1OCc1ccc(F)cc1	> 100	> 100
CCC1=NN(c2cccc(Br)c2)C(=O)/C1=C\c1ccc(OC)c(OCc2ccc(F)cc2)c1	> 100	> 100
COc1ccc(/C=C2\C(=O)N(c3cccc(Br)c3)N=C2NC(=O)C(F)(F)F)cc1OCc1ccc(F)cc1	> 100	> 100
COc1ccc(/C=C2\C(=O)N(c3cccc(Br)c3)N=C2OC(C)=O)cc1OCc1ccc(F)cc1	100	> 100
COc1ccc(/C=C2\C(=O)N(c3cccc(Br)c3)N=C2COC(C)=O)cc1OCc1ccc(F)cc1	57	> 100
